Measured values published in the supplement of paper PMC4862054.

Assays:
Settings in all cases: incubation time: 72 h
BT-474 [1] = assay: normalised response (% of control), CellTox Green; higher = less cell death (100 = DMSO, 0 = benzethonium chloride kill control)
Summary of the method: (§1)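 After 72 h with compound in 384-well plates, breast cancer cell lines seeded as 20 µl suspension were read for CellTox Green fluorescence at 485/520 nm. CellTiter-Glo luminescence was then read after 10 min at room temperature. Compound was present at 5 concentrations in 10-fold steps over a 10,000-fold range set per compound, and plates were normalised to 0.1 % DMSO (100) and a positive kill control (0). Values are normalised signals, each at a single concentration.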

BT-549 [2] = assay: as above
Summary of the method: as §1

CAL-120 [3] = assay: as above
Summary of the method: as §1

CAL-148 [4] = assay: as above
Summary of the method: as §1

CAL-51 [5] = assay: as above
Summary of the method: as §1

CAL-85-1 [6] = assay: as above
Summary of the method: as §1

DU-4475 [7] = assay: as above
Summary of the method: as §1

HCC1143 [8] = assay: as above
Summary of the method: as §1

HCC1599 [9] = assay: as above
Summary of the method: as §1

HCC1937 [10] = assay: as above
Summary of the method: as §1

HDQ-P1 [11] = assay: as above
Summary of the method: as §1

Hs578T [12] = assay: as above
Summary of the method: as §1

MCF-10A [13] = assay: as above
Summary of the method: as §1

MDA-MB-231 [14] = assay: as above
Summary of the method: as §1

MDA-MB-436 [15] = assay: as above
Summary of the method: as §1

MDA-MB-453 [16] = assay: as above
Summary of the method: as §1

MDA-MB-468 [17] = assay: as above
Summary of the method: as §1

MFM-223 [18] = assay: as above
Summary of the method: as §1

BT-474 [19] = assay: normalised response (% of control), CellTiter-Glo; higher = more viable cells (100 = DMSO, 0 = benzethonium chloride kill control)
Summary of the method: as §1

BT-549 [20] = assay: as above
Summary of the method: as §1

CAL-120 [21] = assay: as above
Summary of the method: as §1

CAL-148 [22] = assay: as above
Summary of the method: as §1

CAL-51 [23] = assay: as above
Summary of the method: as §1

CAL-85-1 [24] = assay: as above
Summary of the method: as §1

DU-4475 [25] = assay: as above
Summary of the method: as §1

HCC1143 [26] = assay: as above
Summary of the method: as §1

HCC1599 [27] = assay: as above
Summary of the method: as §1

HCC1937 [28] = assay: as above
Summary of the method: as §1

HDQ-P1 [29] = assay: as above
Summary of the method: as §1

Hs578T [30] = assay: as above
Summary of the method: as §1

MCF-10A [31] = assay: as above
Summary of the method: as §1

MDA-MB-231 [32] = assay: as above
Summary of the method: as §1

MDA-MB-436 [33] = assay: as above
Summary of the method: as §1

MDA-MB-453 [34] = assay: as above
Summary of the method: as §1

MDA-MB-468 [35] = assay: as above
Summary of the method: as §1

MFM-223 [36] = assay: as above
Summary of the method: as §1

SK-BR-3 = assay: as above
Summary of the method: as §1

SMILES | normalised response (BT-474 [1]) | normalised response (BT-549 [2]) | normalised response (CAL-120 [3]) | normalised response (CAL-148 [4]) | normalised response (CAL-51 [5]) | normalised response (CAL-85-1 [6]) | normalised response (DU-4475 [7]) | normalised response (HCC1143 [8]) | normalised response (HCC1599 [9]) | normalised response (HCC1937 [10]) | normalised response (HDQ-P1 [11]) | normalised response (Hs578T [12]) | normalised response (MCF-10A [13]) | normalised response (MDA-MB-231 [14]) | normalised response (MDA-MB-436 [15]) | normalised response (MDA-MB-453 [16]) | normalised response (MDA-MB-468 [17]) | normalised response (MFM-223 [18]) | normalised response (BT-474 [19]) | normalised response (BT-549 [20]) | normalised response (CAL-120 [21]) | normalised response (CAL-148 [22]) | normalised response (CAL-51 [23]) | normalised response (CAL-85-1 [24]) | normalised response (DU-4475 [25]) | normalised response (HCC1143 [26]) | normalised response (HCC1599 [27]) | normalised response (HCC1937 [28]) | normalised response (HDQ-P1 [29]) | normalised response (Hs578T [30]) | normalised response (MCF-10A [31]) | normalised response (MDA-MB-231 [32]) | normalised response (MDA-MB-436 [33]) | normalised response (MDA-MB-453 [34]) | normalised response (MDA-MB-468 [35]) | normalised response (MFM-223 [36]) | normalised response (SK-BR-3)
NC(=O)NO [Hydroxyurea] (1000 nM) | 101% | 105% | 101% | 78.8% | 78.6% | 115% | 102% | 67.2% | 99.6% | 109% | 99.4% | 101% | 108% | 111% | 101% | 96.4% | 103% | 89.5% | 92.1% | 105% | 102% | 104% | 61.3% | 110% | 99.6% | 105% | 97.1% | 97.6% | 95.2% | 101% | 99.2% | 100% | 98.5% | 109% | 102% | 105% | 103%
COc1cc2c(cc1-c1c(C)noc1C)ncc1[nH]c(=O)n([C@H](C)c3ccccn3)c12 [I-BET151] (100 nM) | 101% | 93.2% | 97.4% | 102% | 112% | 107% | 103% | 91.9% | 99.1% | 102% | 89.7% | 108% | 89.9% | 78.7% | 64.7% | 98.3% | 54% | 103% | 89.6% | 98.8% | 99.9% | 110% | 104% | 104% | 94.8% | 117% | 100% | 98.4% | 96% | 102% | 93.8% | 99.6% | 96.4% | 85.7% | 98.9% | 103% | 105%
CC(C)n1nc(-c2ccc3oc(N)nc3c2)c2c(N)ncnc21 [INK128] (10 nM) | 76.1% | 83.9% | 100% | 96.6% | 99.6% | 99.9% | 96.8% | 60.6% | 95% | 91.2% | 78.1% | 108% | 108% | 99.5% | 94.7% | 99.3% | 104% | 99.9% | 78.9% | 74.7% | 82.4% | 81.7% | 76.8% | 81.4% | 86.8% | 85.8% | 100% | 82.9% | 75% | 85% | 89.1% | 81.8% | 79.1% | 73.8% | 81.2% | 70.6% | 55.6%
O=C(O)CC[C@H]1CC[C@@](c2cc(F)ccc2F)(S(=O)(=O)c2ccc(Cl)cc2)CC1 [MK-0752] (10 nM) | 104% | 92.4% | 107% | 101% | 103% | 102% | 108% | 120% | 122% | 125% | 105% | 56.9% | 109% | 122% | 99.9% | 107% | 108% | 85.8% | 105% | 93.8% | 106% | 108% | 101% | 97.2% | 102% | 105% | 91.8% | 98.8% | 99.3% | 106% | 105% | 109% | 99.7% | 114% | 96.1% | 106% | 105%
